{"source": "patent US6881729B2", "about": "“Bile compound and method of controlling behavior of lampreys therewith” (Board of Trustees of Michigan State University, priority 2001, dated 2005)", "key": {"[1]": {"system": "antibody against 3kPZS (polyclonal antiserum L286)", "experiment": "ELISA cross-reactivity of the antiserum", "type": "binding, rabbit", "description": "Plates were coated with polyclonal goat anti-rabbit IgG (Sigma; product code R2004) by adding 120 μL of antibody diluted in 0.05 M potassium phosphate buffer, pH 7.4 to each well and incubating overnight at 4° C. The plates were blocked by addition of 100 μL of 3% BSA in 0.1 M potassium phosphate buffered saline and storage at 4° C. for at least 12 h.\nNon-specific binding (NSB) and maximum binding (B0) were measured in separate wells. Water washings, extracts, or HPLC fractions were diluted 20 times in assay buffer and 100 μL added to wells in duplicate; 50 μL of the diluted enzyme label (1:2000) was added to all wells and 50 μL of primary antibody (1:500,000) was added to all but NSB wells. Plates were incubated for 2 h at room temperature in a humid chamber. Then, after rinsing three times with wash buffer, 200 μL Ellmans reagent (4.3 mg DTNB, and 4 mg acetyl thiocholine in 20 mL 0.02 M potassium phosphate buffer) was added to each well. The plates were sealed and incubated overnight at room temperature in a humid chamber.\nTo test the cross-reactivity of the antibody to structurally related compounds, serial dilutions of ACA, PZ, PZS, CA, 3kACA, and 3kPZ were assayed alongside the 3kPZS standard."}, "[2]": {"experiment": "diethyl ether extraction from buffers of different pH", "type": "physicochemical", "details": "pH 4", "description": "A trial was carried out in which a mixture of synthetic 3kPZS and 3kACA was dissolved in buffers of different pH and then extracted with diethyl ether. […] Based on this observation, an extract from 1 L of water that had been conditioned by a spermiating male was redissolved in 100 μL methanol and 900 μL of 0.05 M sodium acetate buffer, pH 4.0. This was extracted four times with 3 mL diethyl ether. The residue was then separated by HPLC as described above and the fractions assayed with the ELISA. Some of the extract which had not been treated with diethyl ether was treated in the same way. After these separations had been performed, standard synthetic 3kACA, 3kPZS and 3kPZ (200 μg each) were run on the column under identical conditions."}, "ovulated females": {"system": "ovulated females", "experiment": "two-choice maze behavioral test (preference and searching)", "type": "in vivo, sea lamprey, Petromyzon marinus", "excerpt": "Behavioral tests confirmed that the odor of spermiating males influences the distribution and locomotor activities of ripe females in a two-choice maize as follows. Animals were classified as spermiating males and ovulated females if milt and eggs, respectively, could be expressed by manual pressure, or otherwise as non-spermiating males and pre-ovulatory females, and used as either test subjects or odor donors in a flow through (0.07 m/s) maze (L 4.6 m×W 1.2 m) with plywood bottom, sides, and a partition in the middle which extended 2.4 m from the upstream end, and with plastic meshes blocking fish movement at both the upstream and downstream ends. Odor donors were held above the upstream mesh. Between 0700 and 1700 h, a single test subject was acclimated for 10 min in the maze, and its behavior video recorded for 20 min. Then, 5 lampreys (all of one sex and maturity) were introduced into the mesh chamber on a randomly chosen side, and behavior of test subjects recorded for another 20 min. When washings were used, a spermiating male was held in 10 L of water for four hours and the water introduced into the odor chamber at 75 mL/min. Naïve observers scored videotapes for the total time spent in each side before (Be and Bc) and after (Ae and Ac) odorant introduction. The scores were used to calculate an index of preference: I=(Ae/(Ae+Be))−(Ac/(Ac+Bc)). A similar index was computed for searching behaviors which involved pacing back and forth across the upstream barrier, increased swimming speed, and rapid beating of the tail.\nWhen tested in a two-choice maze, ovulated females (but not males or pre-ovulatory females) spent more time in the compartment scented with washings from spermiating males (Table 1). There was no preference of ovulated females for washings of pre-spermiating males or females.\nFrom this we estimated that in the two-choice maze experiments with live males, the pheromone reached a concentration between 0.1 and 0.2 ηM. Therefore, the converted PS was tested in the two-choice maze at a final concentration of 0.17 ηM."}, "[3]": {"experiment": "long-term storage of natural compound in ethanol", "type": "physicochemical", "details": "1 mg/mL in ethanol at −20° C. for over one year", "excerpt": "In Example 1, only a small supply of synthetic 3kPZS had been produced by enzymatic oxidation of the 3α-hydroxyl group of PZS. This restricted the number of comparisons that could be made between the natural and synthetic 3kPZS. This example completes these studies. This example confirms that both synthetic and natural 3kPZS have the same chromatographic properties and behave in the same way when treated with 3α-HSD and sulfatase. […] The reason for this has not been fully established. However, the natural compound that was used in this example had been stored at 1 mg/mL in ethanol at −20° C. for over one year, whereas the synthetic compound had been made up freshly. The possibility is that the sulfate group is unstable in long-term storage."}, "[4]": {"system": "olfactory organs of adult females", "experiment": "electro-olfactography (EOG)", "type": "in vivo, sea lamprey", "excerpt": "The response magnitude is expressed as the percentage of responses to 10^−5 M L-arginine, the standard odorant. Vertical bars, one standard deviation."}, "[5]": {"details": "weight for weight basis, compared with 3kPZS"}, "[6]": {"details": "ovulated females, final concentration of 0.17 ηM"}, "[7]": {"details": "ovulated females, flow-through maze, washings introduced at 75 mL/min, PP at final concentration of 0.17 ηM"}, "[8]": {"details": "ovulated females, searching behavior"}}, "data": [{"smiles": "C[C@H](CCC(=O)O)[C@H]1CC[C@H]2[C@@H]3[C@H](O)C[C@H]4CC(=O)CC[C@]4(C)[C@H]3C[C@H](O)[C@]12C", "note": "[3kACA, 7α,12α-dihydroxy-5α-cholan-3-one-24-oic acid]", "values": [{"measurement": "cross-reaction with the antiserum", "setting": "[1]; relative to 3kPZS standard", "result": 100, "unit": "%"}, {"measurement": "cross-reaction with the antiserum", "setting": "[1]; [5]", "result": "equally well"}, {"measurement": "extraction into the diethyl ether phase", "setting": "[2]", "result": "could be extracted into the diethyl ether phase"}]}, {"smiles": "C[C@H](CCCO)[C@H]1CC[C@H]2[C@@H]3[C@H](O)C[C@H]4CC(=O)CC[C@]4(C)[C@H]3C[C@H](O)[C@]12C", "note": "[3kPZ, 7α,12α,24-trihydroxy-5α-cholan-3-one]", "values": [{"measurement": "cross-reaction with the antiserum", "setting": "[1]; relative to 3kPZS standard", "result": 100, "unit": "%"}, {"measurement": "cross-reaction with the antiserum", "setting": "[1]; [5]", "result": "equally well"}]}, {"smiles": "CC(CCCOS(=O)(=O)O)C1CCC2C3C(O)CC4CC(=O)CCC4(C)C3CC(O)C12C", "note": "(stereo not drawn) [3kPZS, 7α,12α,24-trihydroxy-5α-cholan-3-one-24-sulfate]", "values": [{"measurement": "extraction into the diethyl ether phase", "setting": "[2]", "result": "not"}, {"measurement": "level at which it attracts ovulated females", "setting": "ovulated females; in words", "result": "sub-nanomolar"}, {"measurement": "searching behavior in the scented side", "setting": "ovulated females; [6]", "result": "increased searching behavior"}, {"measurement": "time spent in the scented side", "setting": "ovulated females; [6]", "result": "spent a longer time"}, {"measurement": "No. animals that spent more time on side that was: Scented", "setting": "ovulated females; [7]", "result": 8}, {"measurement": "No. animals that spent more time on side that was: Unscented", "setting": "ovulated females; [7]", "result": 0}, {"measurement": "No. animals that spent more time searching on side that was: Scented", "setting": "ovulated females; [8]", "result": 6}, {"measurement": "No. animals that spent more time searching on side that was: Unscented", "setting": "ovulated females; [8]", "result": 0}, {"measurement": "stability in storage", "setting": "[3]", "result": "appeared to have broken down to 3kPZ"}, {"measurement": "olfactory stimulation by EOG", "setting": "[4]; adult females", "result": "highly stimulatory"}, {"measurement": "detection threshold", "setting": "[4]; worked out from release rate and EOG detection of male washings after dilution of 10^6 times", "result": "about 10^−12 molar"}]}, {"smiles": "C[C@H](CCCOS(=O)(=O)O)[C@H]1CC[C@H]2[C@@H]3[C@H](O)C[C@H]4C[C@H](O)CC[C@]4(C)[C@H]3C[C@H](O)[C@]12C", "note": "[PZS, 3α,7α,12α,24-tetrahydroxy-5α-cholan-24-sulfate]", "values": [{"measurement": "cross-reaction with the antiserum", "setting": "[1]; relative to 3kPZS standard", "result": 1.6, "unit": "%"}]}]}
